# Data: BindingDB's records for doi:10.1021/cc100073a (Amgen, 2010)
# Several values for one entry are separate records, joined by “and”; a condition that tells them apart may be missing. Equal values may be shown once.
# What was measured:
# Assay in all cases: PHD Enzymatic Assay
# [1] = molecular target: Egl nine homolog 1 (Homo sapiens, UniProt Q9GZT9)
# Protocol: (§1) PHD1,2,3 activity was measured utilizing homogeneous time-resolved fluroescence energy transfer techology by detecting the trans-4-hydroxylatio of HIF-1alpha residue pro564 in biotin-hHIR-1alpha(558-574)(Biotin-DLEMLAPYIPMDDDFQL)peptide substrate resulting in a recognition by the Europium-tagged Von Hippel Lindau, Elongin B and Dlongin C heterotrimeric complex (VCB-Eu complex)
# [2] = molecular target: Prolyl hydroxylase EGLN3 (Homo sapiens, UniProt Q9H6Z9)
# Sequence of Prolyl hydroxylase EGLN3 (Q9H6Z9 whole entry): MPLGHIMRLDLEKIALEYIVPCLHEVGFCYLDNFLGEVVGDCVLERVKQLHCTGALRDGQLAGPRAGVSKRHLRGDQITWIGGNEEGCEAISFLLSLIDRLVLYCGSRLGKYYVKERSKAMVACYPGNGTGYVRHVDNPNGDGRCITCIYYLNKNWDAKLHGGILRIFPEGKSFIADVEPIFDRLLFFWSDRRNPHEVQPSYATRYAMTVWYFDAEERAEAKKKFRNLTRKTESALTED
# Protocol: as §1
# [3] = molecular target: Prolyl hydroxylase EGLN2 (Homo sapiens, UniProt Q96KS0)
# Sequence of Prolyl hydroxylase EGLN2 (Q96KS0 whole entry): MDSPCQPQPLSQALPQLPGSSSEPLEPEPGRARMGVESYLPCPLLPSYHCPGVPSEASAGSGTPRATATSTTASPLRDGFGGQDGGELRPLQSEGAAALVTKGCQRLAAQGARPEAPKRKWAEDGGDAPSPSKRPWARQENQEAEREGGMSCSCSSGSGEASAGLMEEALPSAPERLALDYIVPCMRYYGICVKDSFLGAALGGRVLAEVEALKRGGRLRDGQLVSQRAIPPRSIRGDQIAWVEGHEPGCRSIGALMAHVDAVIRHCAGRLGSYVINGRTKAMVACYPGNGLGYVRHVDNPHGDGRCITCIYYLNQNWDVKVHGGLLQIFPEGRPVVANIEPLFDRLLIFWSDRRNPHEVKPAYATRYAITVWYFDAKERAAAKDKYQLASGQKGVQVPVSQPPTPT
# Protocol: as §1
# Sequence of Egl nine homolog 1 (Q9GZT9 whole entry): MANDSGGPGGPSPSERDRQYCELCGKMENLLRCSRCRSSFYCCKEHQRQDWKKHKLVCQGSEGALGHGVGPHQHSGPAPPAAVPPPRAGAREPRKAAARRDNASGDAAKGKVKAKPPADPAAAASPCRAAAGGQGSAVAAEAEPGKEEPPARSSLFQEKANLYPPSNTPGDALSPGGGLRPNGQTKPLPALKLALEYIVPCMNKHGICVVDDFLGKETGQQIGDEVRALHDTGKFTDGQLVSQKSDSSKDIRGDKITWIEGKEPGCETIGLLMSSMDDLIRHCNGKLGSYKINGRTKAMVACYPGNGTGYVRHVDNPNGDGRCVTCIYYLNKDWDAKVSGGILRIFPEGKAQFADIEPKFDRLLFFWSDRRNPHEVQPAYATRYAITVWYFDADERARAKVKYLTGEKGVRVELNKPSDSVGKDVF
IC50 [1],IC50 [2],IC50 [3],SMILES
546 nM,,,"CC(=O)NCc1ccc2c(c1)c(O)c(C(=O)NCC(=O)O)c(=O)n2C [PHD Inhibitor, 5]"
482 nM,,,"CC(=O)N[C@@H](Cc1ccccc1)C(=O)NCc1ccc2c(c1)c(O)c(C(=O)NCC(=O)O)c(=O)n2C [PHD Inhibitor, 8{1}]"
112 nM,,,"CC(=O)N[C@H](Cc1ccccc1)C(=O)NCc1ccc2c(c1)c(O)c(C(=O)NCC(=O)O)c(=O)n2C [PHD Inhibitor, 8{2}]"
521 nM,,,"CC(=O)N[C@H](CC(C)C)C(=O)NCc1ccc2c(c1)c(O)c(C(=O)NCC(=O)O)c(=O)n2C [PHD Inhibitor, 8{3}]"
293 nM,,,"CC(=O)NCC(=O)NCc1ccc2c(c1)c(O)c(C(=O)NCC(=O)O)c(=O)n2C [PHD Inhibitor, 8{4}]"
265 nM,,,"CC(=O)N[C@@H](CO)C(=O)NCc1ccc2c(c1)c(O)c(C(=O)NCC(=O)O)c(=O)n2C [PHD Inhibitor, 8{5}]"
138 nM,,,"CC(=O)N[C@@H](CC(=O)O)C(=O)NCc1ccc2c(c1)c(O)c(C(=O)NCC(=O)O)c(=O)n2C [PHD Inhibitor, 8{6}]"
409 nM,,,"CC(=O)N[C@@H](CCCCN)C(=O)NCc1ccc2c(c1)c(O)c(C(=O)NCC(=O)O)c(=O)n2C [PHD Inhibitor, 8{7}]"
35 nM,4.5 nM,4.3 nM,"CC(=O)N[C@@H](Cc1ccc2ccccc2c1)C(=O)N[C@@H](Cc1ccccc1)C(=O)NCc1ccc2c(c1)c(O)c(C(=O)NCC(=O)O)c(=O)n2C [PHD Inhibitor, 12{1,1,2}]"
2920 nM,165 nM,95 nM,"Cn1c(=O)c(C(=O)NCC(=O)O)c(O)c2cc(CNC(=O)[C@H](Cc3ccccc3)NC(=O)[C@H](Cc3ccccc3)NC(=O)CCN3CCOCC3)ccc21 [PHD Inhibitor, 12{1,5,3}]"
93.8 nM,6.4 nM,13.5 nM,"CC(=O)N[C@H](Cc1ccc2ccccc2c1)C(=O)N[C@H](Cc1ccccc1)C(=O)NCc1ccc2c(c1)c(O)c(C(=O)NCC(=O)O)c(=O)n2C [PHD Inhibitor, 12{2,1,2}]"
308 nM,18.8 nM,60.8 nM,"Cn1c(=O)c(C(=O)NCC(=O)O)c(O)c2cc(CNC(=O)[C@@H](Cc3ccccc3)NC(=O)[C@@H](Cc3ccc4ccccc4c3)NC(=O)C(C)(C)C)ccc21 [PHD Inhibitor, 12{2,1,4}]"
1560 nM,40 nM,49 nM,"Cn1c(=O)c(C(=O)NCC(=O)O)c(O)c2cc(CNC(=O)[C@@H](Cc3ccccc3)NC(=O)C[C@H](Cc3ccccc3)NC(=O)c3ccccc3)ccc21 [PHD Inhibitor, 12{2,3,1}]"
37.4 nM and 90.2 nM,11.7 nM and 13.5 nM,7.2 nM and 12.2 nM,"CC(=O)N[C@H](Cc1ccccc1)C(=O)N[C@H](Cc1ccccc1)C(=O)NCc1ccc2c(c1)c(O)c(C(=O)NCC(=O)O)c(=O)n2C [PHD Inhibitor, 12{2,3,2}]"
86.4 nM and 104 nM,12.6 nM and 13.2 nM,12.9 nM and 14.6 nM,"Cn1c(=O)c(C(=O)NCC(=O)O)c(O)c2cc(CNC(=O)[C@@H](Cc3ccccc3)NC(=O)[C@@H](Cc3ccccc3)NC(=O)C(C)(C)C)ccc21 [PHD Inhibitor, 12{2,3,4}]"
,20 nM and 5.3 nM,22 nM and 8.5 nM,"Cn1c(=O)c(C(=O)NCC(=O)O)c(O)c2cc(CNC(=O)[C@@H](Cc3ccccc3)NC(=O)[C@@H](Cc3ccccc3)NC(=O)c3ccccc3)ccc21 [PHD Inhibitor, 12{2,4,1}]"
44.8 nM,8.9 nM,7.6 nM,"CC(=O)N[C@@H](Cc1ccccc1)C(=O)N[C@H](Cc1ccccc1)C(=O)NCc1ccc2c(c1)c(O)c(C(=O)NCC(=O)O)c(=O)n2C [PHD Inhibitor, 12{2,5,2}]"
67.5 nM,16.2 nM,11 nM,"CC(=O)N[C@@H](CC(C)C)C(=O)N[C@H](Cc1ccccc1)C(=O)NCc1ccc2c(c1)c(O)c(C(=O)NCC(=O)O)c(=O)n2C [PHD Inhibitor, 12{2,6,2}]"
113 nM,16.8 nM,14.5 nM,"CC(C)C[C@@H](NC(=O)C(C)(C)C)C(=O)N[C@H](Cc1ccccc1)C(=O)NCc1ccc2c(c1)c(O)c(C(=O)NCC(=O)O)c(=O)n2C [PHD Inhibitor, 12{2,6,4}]"
1100 nM,77 nM,32 nM,"CC(C)C[C@H](NC(=O)[C@H](Cc1cccc2ccccc12)NC(=O)C(C)(C)C)C(=O)NCc1ccc2c(c1)c(O)c(C(=O)NCC(=O)O)c(=O)n2C [PHD Inhibitor, 12{3,1,4}]"
41.9 nM,13.5 nM,5.1 nM,"CC(=O)N[C@@H](Cc1ccc2ccccc2c1)C(=O)NCC(=O)NCc1ccc2c(c1)c(O)c(C(=O)NCC(=O)O)c(=O)n2C [PHD Inhibitor, 12{4,1,2}]"
